Source: PMC4327855 (Science signaling, 2014)

Biological target: T1, TPC1 (Strongylocentrotus purpuratus, UniProt D1J6X7)
T1 sequence (D1J6X7 1-881): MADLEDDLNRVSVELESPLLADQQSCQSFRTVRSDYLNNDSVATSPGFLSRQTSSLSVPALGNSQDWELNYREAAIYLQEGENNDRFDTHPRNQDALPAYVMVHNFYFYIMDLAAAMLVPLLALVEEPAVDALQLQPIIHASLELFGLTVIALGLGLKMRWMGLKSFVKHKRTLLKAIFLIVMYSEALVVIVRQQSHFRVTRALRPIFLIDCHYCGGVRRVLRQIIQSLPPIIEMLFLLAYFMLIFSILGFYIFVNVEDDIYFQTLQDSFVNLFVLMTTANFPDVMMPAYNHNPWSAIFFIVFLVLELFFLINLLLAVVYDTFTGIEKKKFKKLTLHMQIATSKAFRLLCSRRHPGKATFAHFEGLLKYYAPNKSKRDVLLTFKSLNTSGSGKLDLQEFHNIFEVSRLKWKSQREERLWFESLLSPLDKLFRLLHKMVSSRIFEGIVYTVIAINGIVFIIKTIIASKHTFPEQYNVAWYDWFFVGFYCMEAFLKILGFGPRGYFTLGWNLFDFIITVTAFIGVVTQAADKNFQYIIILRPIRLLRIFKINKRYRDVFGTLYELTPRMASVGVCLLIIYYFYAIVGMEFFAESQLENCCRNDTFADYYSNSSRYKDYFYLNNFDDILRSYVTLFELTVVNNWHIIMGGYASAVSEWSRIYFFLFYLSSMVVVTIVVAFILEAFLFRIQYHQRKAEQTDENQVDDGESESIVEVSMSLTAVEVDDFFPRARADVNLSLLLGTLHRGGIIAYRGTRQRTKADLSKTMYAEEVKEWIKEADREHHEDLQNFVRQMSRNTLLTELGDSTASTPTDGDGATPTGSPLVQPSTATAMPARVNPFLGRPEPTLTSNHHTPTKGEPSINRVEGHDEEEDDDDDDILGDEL
Experiment: inhibition of NAADP-evoked Ca2+ signals
Format: cell-based

COC(=O)C1=C(C)NC(C)=C(C(=O)OC)C1c1ccccc1[N+](=O)[O-] [nifedipine] showed an IC50 of 4 µM.
